Values of other authors in patent publication US20210113548A1, “METHODS FOR DETERMINING A DRUG DOSING REGIMEN” (Clear Creek Bio, Inc., priority 2019, published 2021).

Experiments:
solid tumor malignancies = conditions: administered over a 5-day period followed by a 3-week gap or once per week for three weeks followed by a 1-week gap

## Cc1c(-c2ccc(-c3ccccc3F)cc2)nc2ccc(F)cc2c1C(=O)O [brequinar, 6-fluoro-2-(2′-fluoro-1,1′ biphenyl-4-yl)-3-methyl-4-quinoline carboxylic acid]
Mouse model of AML
  adverse effects of daily administration of high doses: weight loss, anemia, and thrombocytopenia
Solid tumor malignancies
  efficacy in treatment of solid tumor malignancies: ineffective
